HELM strings list units from the 5' end as sugar, base in round brackets, then linkage (d deoxyribose, r ribose, m 2'-O-methyl, p phosphodiester). Strings are as the collection lists them; they lack the last nucleoside at the 3' end of the tested compound. [moe] = 2'-O-(2-methoxyethyl) (MOE); [sp] = phosphorothioate linkage; [m5C] = 5-methylcytosine
Target: UBE3A-ATS
Assay: mouse, dose not given
Conditions: ASO

Substance | 3 h FOB score
RNA1{[moe]([m5C])[sp].[moe](A)p.[moe](G)p.[moe]([m5C])p.[moe]([m5C])p.d(A)[sp].d([m5C])[sp].d(T)[sp].d(T)[sp].d(T)[sp].d(G)[sp].d([m5C])[sp].d(A)[sp].d(A)[sp].d([m5C])[sp].[moe](T)p.[moe]([m5C])p.[moe](A)[sp].[moe](A)}$$$$ (last 3' nucleoside missing) | 6.2 score 0-7
RNA1{[moe](T)[sp].[moe](G)p.[moe](G)p.[moe](T)p.[moe](A)p.d(T)[sp].d(T)[sp].d(G)[sp].d(A)[sp].d([m5C])[sp].d(A)[sp].d([m5C])[sp].d([m5C])[sp].d(T)[sp].d([m5C])[sp].[moe]([m5C])p.[moe](A)p.[moe](A)[sp].[moe]([m5C])}$$$$ (last 3' nucleoside missing) | 0.3 score 0-7
RNA1{[moe](T)[sp].[moe](G)p.[moe](T)p.[moe](G)p.d([m5C])[sp].d(A)[sp].d(T)[sp].d(A)[sp].d([m5C])[sp].d([m5C])[sp].d([m5C])[sp].d(A)[sp].d(G)[sp].d(G)[sp].[moe](G)p.[moe](T)p.[moe](A)p.[moe](G)[sp].[moe](G)}$$$$ (last 3' nucleoside missing) | 1 score 0-7
RNA1{[moe](A)[sp].[moe](T)p.[moe]([m5C])p.[moe](T)p.[moe]([m5C])p.d(G)[sp].d(G)[sp].d(G)[sp].d(T)[sp].d(A)[sp].d(T)[sp].d(A)[sp].d(T)[sp].d(A)[sp].d(A)[sp].[moe](A)p.[moe](T)p.[moe](T)[sp].[moe](A)}$$$$ (last 3' nucleoside missing) | 0 score 0-7
RNA1{[moe](G)[sp].[moe](G)p.[moe]([m5C])p.[moe]([m5C])p.[moe](T)p.d(G)[sp].d(A)[sp].d([m5C])[sp].d(T)[sp].d(A)[sp].d(G)[sp].d(G)[sp].d([m5C])[sp].d(A)[sp].d(T)[sp].[moe](T)p.[moe](G)p.[moe](A)[sp].[moe](A)}$$$$ (last 3' nucleoside missing) | 3 score 0-7
RNA1{[moe](T)[sp].[moe]([m5C])p.[moe](A)p.[moe]([m5C])p.d([m5C])[sp].d(A)[sp].d(T)[sp].d(T)[sp].d(T)[sp].d(T)[sp].d(G)[sp].d(A)[sp].d([m5C])[sp].d([m5C])[sp].[moe](T)p.[moe](T)p.[moe]([m5C])p.[moe](T)[sp].[moe](T)}$$$$ (last 3' nucleoside missing) | 2 score 0-7
RNA1{[moe]([m5C])[sp].[moe](T)p.[moe](T)p.[moe]([m5C])p.d(A)[sp].d([m5C])[sp].d([m5C])[sp].d(A)[sp].d(T)[sp].d(T)[sp].d(T)[sp].d(T)[sp].d(G)[sp].d(A)[sp].[moe]([m5C])p.[moe]([m5C])p.[moe](T)p.[moe](T)[sp].[moe]([m5C])}$$$$ (last 3' nucleoside missing) | 1 score 0-7
RNA1{[moe](T)[sp].[moe]([m5C])p.[moe](A)p.[moe](A)p.[moe]([m5C])p.[moe]([m5C])[sp].d(A)[sp].d(A)[sp].d(T)[sp].d(T)[sp].d(T)[sp].d(G)[sp].d([m5C])[sp].d(T)[sp].[moe](A)p.[moe](T)[sp].[moe](T)}$$$$ (last 3' nucleoside missing) | 3 score 0-7
RNA1{[moe](T)[sp].[moe]([m5C])p.[moe](A)p.[moe]([m5C])p.[moe]([m5C])p.[moe](A)p.d(T)[sp].d(T)[sp].d(T)[sp].d(T)[sp].d(G)[sp].d(A)[sp].d([m5C])[sp].d([m5C])[sp].d(T)[sp].d(T)[sp].[moe]([m5C])p.[moe](T)[sp].[moe](T)}$$$$ (last 3' nucleoside missing) | 1 score 0-7
RNA1{[moe](G)[sp].[moe](G)p.[moe](G)p.[moe](T)p.[moe](A)p.d(T)[sp].d(T)[sp].d(G)[sp].d([m5C])[sp].d(T)[sp].d(G)[sp].d(T)[sp].d([m5C])[sp].d([m5C])[sp].d(A)[sp].[moe](A)p.[moe](A)p.[moe](T)[sp].[moe](G)}$$$$ (last 3' nucleoside missing) | 6.8 score 0-7

Reference: the OligoGym collection
